“Also recorded” adds a separate entry of the source.
Legend:
SH-SY5Y cells = assay: MTS assay of viable SH-SY5Y cells for determination of cytotoxicity; format: cell-based, human; details: 24 h
Procedure: SH-SY5Y cells expressing SPA4CT wt were spread at a density of 30.000 cells per 96-well. The cell culture media (OptiMEM, Invitrogen or serum containing medium, Biochrom) were supplemented with NSAIDs in varying concentrations as well as positive controls (without treatment or vehicle control) and negative controls (0.01% to 0.5% Triton X-100). Each well was incubated with 100 μl of supplemented media for 24 h. Then, 20 μl of the MTS stain solution (Promega, cell viability assay) was added and after 2-4 h incubation time the absorbance at 562 nm was measured.
(§1) (ii) Initially, the cytotoxicity of the compounds in cultures of neuronal cells is determined using a cell proliferation assay or an assay based on viable cells (FIG. 2). Then, APP-CTF, APP or APPsw (APPsw: APP with the familial AD mutation “swedish” (K670N M671L); APP-CTF: APP-C-terminal fragment; CTF: after alpha- or beta-secretase cleavage) expressing cells are incubated with the drug candidate (two different concentrations, 96 well plate format). After incubation for 6 to 24 h the amount of Abeta42 secreted from the cell culture medium is determined using ELISA (see, for further experimental details and results FIG. 3 and the figure legend). Drug candidates causing a reduction of the amount of Abeta42 are assayed in a further step comprising ELISA and MALDI-MS. First, the amounts of Abeta40 and Abeta38 (as well as additional possible Abeta species) are quantified by use of ELISA. Then, the entire spectrum of secreted Abeta species is assayed using immunoprecipitation and MALDI-MS analysis (see, for further experimental details and results FIG. 4 and the figure legend). Compounds leading to reduced amounts of Abeta42 and increased amounts of shorter Abeta species are selected and assayed in a further screening step.

[1] = target: T1, transmembrane sequence Abeta29-42 wt (Homo sapiens, UniProt P05067); assay: ToxR system: dimerization of transmembrane sequence Abeta29-42 wt; format: cell-based
T1 construct: the amino acid residues 29-42 of the Abeta region ([…]); expressed in transfected cells; host or cells: E. coli FHK12
Procedure: ToxR-system E. coli FHK12 cells were transformed with accordant DNA constructs encoding for ToxR-fusionproteins containing at least a part of the APP transmembrane sequence (e.g. sequence Abeta 29-42). Cells were grown in either FHK medium or minimal medium (e.g. M9 medium) supplemented with NSAIDs and corresponding vehicle controls for 6 h. Then, aliquots of the cells were lysed and beta-galactosidase activity was measured (Langosch et al., 1996).
The second screening step is carried out in order to find compounds selectively modulating only the processing of APP via binding to the transmembrane sequence (TMS) of APP. The APP-GxxxG motif is, inter alia, a perfect target structure for selecting compounds characterized by high affinity binding (Munter et al., EMBO J. 26 (2007), 1702-12). In the bacterial assay system (ToxR system) only the transmembrane sequence of APP containing the amino acid residues 29-42 of the Abeta region (GAIIGLMVGGVVIA) is expressed as part of a fusion protein. […] The rate of transcription correlates with the degree of dimerization and can be determined by measuring the conversion of a coloured substrate. […] After incubation for 2 to 24 h the degree of dimerization is determined. Binding of compounds to the amino acid sequence Abeta 29-42 results in weakening of dimerization and this is determined by measuring the decrease of enzymatic activity. […]

gamma-secretase [2] = target: T2, gamma-secretase (Homo sapiens, UniProt P49768); assay: Quantification of gamma-secretase inhibition: average YFP fluorescence of HEK293 cells expressing APP-CTF-YFP; format: cell-based; details: 6 h
T2 construct: HEK293 expressing SPA4CT-YFP were spread into a 96-well dish and were treated with NSAIDs or controls for 6 h; endogenous in cells; host or cells: HEK293 (ATCC CRL-1573)
Procedure: (§2) To quantify the effects of NSAIDs on gamma-secretase activity, HEK293 expressing SPA4CT-YFP were spread into a 96-well dish and were treated with NSAIDs or controls for 6 h. Intensity of YFP fluorescence was quantified with adjusted filters in a 96-well fluorescence reader (company BertholdTech, Mithras). (i) Cells expressing a fusion protein comprising the substrate of gamma-secretase (APP-CTF) and a fluorescent protein (fp) are incubated with the drug candidate in a 96 well plate. Prior to addition to the cells, the drug is dissolved in EtOH or DMSO. Controls are (1) untreated culture medium, (2) culture medium containing EtOH or DMSO, and (3) culture medium with known inhibitors of gamma-secretase. After incubation for 6 h to 24 hours the fluorescence is determined. If gamma-secretase is active, the fusion protein is degraded and the fluorescent protein spreads in the cell, e.g., the cell cytoplasm. As a consequence, intensive fluorescence is not detectable. If the gamma-secretase is inhibited, the substrate of gamma-secretase accumulates at the plasma membrane resulting in an intensive (and traceable) fluorescence (see, for further experimental details and results FIGS. 1 and 1.II and the figure legend). Drug candidates which inhibit the biological activity (i.e. cleavage of the substrate) of gamma-secretase are discarded.

[3] = tested on: Abeta species secreted from SH-SY5Y cells which stably express wild type APP; assay: ELISA quantification of Abeta species secreted from SH-SY5Y cells stably expressing wild type APP; format: cell-based, human; details: APP wt, 6 h
Procedure: (§3) Quantification of Abeta 42, Abeta 40 and Abeta38 with ELISA Stably transfected cells were plated at a density of 2.8×10^5 cells per 12-well. The day after splitting, 200 μl of fresh media supplemented with NSAIDs or control vehicles were added and incubated for 6 h. For Abeta40 and Abeta42-specific ELISAs, 50 μl of media were analyzed according to the manufacturer's instruction (The Genetics company (TGC), Basel, Switzerland). The same protocol was applied to determine Abeta38 levels, except that the antibody BAP-29 (provided by M. Brockhaus, Roche, Basel, Switzerland) was used.
as §1

gamma-secretase [4] = target: T2, gamma-secretase; assay: Confocal laser scanning microscopy of subcellular distribution of APP-CTF-YFP in HEK293 cells expressing SPA4CT-YFP; format: cell-based; details: 6 h
Procedure: HEK293 cells were transiently transfected with SPA4CT-YFP. After 24 h, cells were treated with varying concentrations (indicated in the figures) of different NSAIDs, gamma-secretase inhibitor N-[N-(3,5-difluorophenacetyl-L-alanyl)]-S-phenylglycine t-butyl ester (DAPT) or vehicle control for 6 h. The subcellular distribution of APP-CTF-YFP within living cells was analyzed by confocal laser scanning microscopy (LSM).
as §2, with “(i)” for “To quantify the effects of NSAIDs on gamma-secretase activity, HEK293 expressing SPA4CT-YFP were spread into a 96-well dish and were treated with NSAIDs or controls for 6 h. Intensity of YFP fluorescence was quantified with adjusted filters in a 96-well fluorescence reader (company BertholdTech, Mithras). (i)”, “Drug candidates which inhibit the biological activity (i.e. cleavage of the substrate) of gamma-secretase are discarded.” left out

[5] = tested on: Abeta species from APP G33A-transfected cells; assay: ELISA quantification of Abeta species secreted from APP G33A-transfected cells; format: cell-based
Procedure: as §3
The effect of the drugs on the dimerization motif GxxxG of TMS of APP is assayed. Drug candidates were added to the cell culture medium containing APP-CTF, APP or APPsw expressing neuronal cells or cells containing the APP-processing machinery as described in Example 2. In addition, cell lines were assayed expressing altered APP molecules characterized by a mutated GxxxG motif. Binding of the compounds to the APP GxxxG motif results in an altered processing only of the wild type proteins, but not the altered GxxxG motif of mutants (see, for further experimental details and results FIG. 5 and the figure legend).
Detection and characterization of the binding of the drug candidate to the GxxxG motif. Binding of the compounds to Abeta42 is verified by use of BIACORE and the KD-value is determined. Binding of the compounds to the GAIIG motif should lead to lack of binding to corresponding Abeta42-fragments or GxxxG mutant peptides. Similarly, using ELISA with synthetical peptides binding of NSAIDs can be determined via a competition assay (see, for further experimental details and results FIG. 6 and the figure legend).

## CC(C)Cc1ccc(C(C)C(=O)O)cc1 (stereo not shown) [Ibuprofen]
SH-SY5Y cells
  Concentration at which compound is no longer toxic (MTS assay): 250 µM
[1]
  Stability of dimerization of the transmembrane sequence: weakens the strength of dimerization
gamma-secretase [2]; 50 μM
  Average fluorescence compared to the DMSO control: slight increase of fluorescence

## CSc1ccc(/C=C2/C(C)=C(CC(=O)O)c3cc(F)ccc32)cc1 [sulindac sulfide]
[3]
  Secreted amount of Abeta38: low and does not substantially reduce
  Secreted amount of Abeta40: low and does not substantially reduce
  Secreted amount of Abeta42: decreases in a concentration dependent manner; also recorded: reduces
SH-SY5Y cells
  Concentration at which compound is no longer toxic (MTS assay): 150 µM
gamma-secretase [4]; 30 μM
  Localization of APP-CTF-YFP (confocal images): APP-CTF preferably accumulates at the ER/nuclear membrane
[1]
  Stability of dimerization of the transmembrane sequence: weakens the stability of dimerization of the transmembrane sequence of Abeta29-42 in a concentration dependent manner
[5]
  Secreted amount of Abeta38: does not substantially reduce
  Secreted amount of Abeta40: does not substantially reduce
  Secreted amount of Abeta42: no impact
gamma-secretase [2]; 50 μM
  Average fluorescence compared to the DMSO control: slight increase of fluorescence

## CC(C)OC(=O)C(C)(C)Oc1ccc(C(=O)c2ccc(Cl)cc2)cc1 [Fenofibrate]
SH-SY5Y cells
  Concentration at which compound is no longer toxic (MTS assay): 5 µM

## C[C@H](NC(=O)Cc1cc(F)cc(F)c1)C(=O)N[C@H](C(=O)OC(C)(C)C)c1ccccc1 [DAPT, N-[N-(3,5-difluorophenacetyl-L-alanyl)]-S-phenylglycine t-butyl ester]
gamma-secretase [4]; 1 μM added to cell culture medium
  Localization of APP-CTF-YFP (confocal images): APP-CTF preferably accumulates at the plasma membrane
gamma-secretase [2]; 1 μM
  Average fluorescence compared to the DMSO control: increased fluorescence

Source: US20100291596A1, “SCREENING METHOD FOR AGENTS SUITABLE FOR THERAPY OF ALZHEIMER'S DISEASE” (FREIE UNIVERSITAT BERLIN, priority 2007, published 2010)
